In brackets after ≈: the same amount, converted by molar mass. One block for each compound: values may come before it.
What was measured:
Assay in all cases: ≥ marks a high value that may be exact or a test limit, other limits are often not marked, values filed in µg/mL are converted to µM
[1] = system: Escherichia coli KCTC 1682
[2] = system: Salmonella typhimurium KCTC 1926
[3] = system: Escherichia coli IFO 12734
[4] = system: Staphylococcus aureus KCTC 1621
[5] = system: Pseudomonas aeruginosa KCTC 1637
[6] = system: Staphylococcus aureus IFO 12732
[7] = system: Staphylococcus epidermidis KCTC 1917
[8] = system: Pseudomonas aeruginosa IFO 12582
[9] = system: Bacillus subtilis IFO 3143
[10] = system: Bacillus subtilis KCTC 3068
[11] = system: Candida albicans TIMM 1768
[12] = system: Proteus vulgaris KCTC 2433
[13] = system: Bacillus subtilis KCTC 1918
[14] = system: Trichosporon beigelii KCTC 7707
[15] = system: Saccharomyces cerevisiae KCTC 7296
[16] = system: Staphylococcus epidermidis T37/8
[17] = system: Stenotrophomonas maltophilia U8908
[18] = system: Staphylococcus aureus 274/08
[19] = system: Staphylococcus aureus V4180
[20] = system: Pseudomonas aeruginosa ATCC 27853
[21] = system: Staphylococcus epidermidis T6/19
[22] = system: Stenotrophomonas maltophilia B32/1
[23] = system: Staphylococcus aureus 145/08
[24] = system: Acinetobacter baumannii NM109
[25] = system: Escherichia coli ATCC 25726
[26] = system: Staphylococcus aureus T4/6
[27] = system: Klebsiella pneumoniae ATCC 700603
[28] = system: Stenotrophomonas maltophilia B32/4
[29] = system: Stenotrophomonas maltophilia B6/2
[30] = system: Staphylococcus aureus S908
[31] = system: Staphylococcus epidermidis RP62A/1
[32] = system: Acinetobacter baumannii NM124
[33] = system: Staphylococcus aureus 127/08
[34] = system: Enterococcus faecalis ATCC 29212
[35] = system: Stenotrophomonas maltophilia B5/5
[36] = system: Acinetobacter baumannii NM75
[37] = system: Acinetobacter baumannii NM35
[38] = system: Acinetobacter baumannii NM8
[39] = system: Staphylococcus aureus ATCC 25923
[40] = system: Candida albicans ATCC 90028
[41] = system: Staphylococcus epidermidis RP62A
[42] = system: Micrococcus luteus ATCC 10240
[43] = system: Klebsiella pneumoniae DSM 681
[44] = system: Escherichia coli DSM 10233
[45] = system: Escherichia coli BL21AI

- MIC [1]: 1 µM (≈ 2.74 µg/mL)
- MIC [2]: 1 µM (≈ 2.74 µg/mL)
- MIC [3]: 0.73 µM (≈ 2 µg/mL)
- MIC [4]: 0.5 µM (≈ 1.37 µg/mL)
- MIC [5]: 1 µM (≈ 2.74 µg/mL)
- MIC [6]: 1.46 µM (≈ 4 µg/mL)
- MIC [7]: 0.5 µM (≈ 1.37 µg/mL)
- MIC [8]: 1.46 µM (≈ 4 µg/mL)
- MIC [9]: 0.365 µM (≈ 1 µg/mL)
- MIC [10]: 4 µM (≈ 11 µg/mL)
SMILES: CC(C)C[C@H](NC(=O)[C@H](Cc1ccc(O)cc1)NC(=O)[C@H](Cc1cnc[nH]1)NC(=O)[C@@H](NC(=O)[C@H](CC(C)C)NC(=O)[C@H](C)NC(=O)[C@H](C)NC(=O)[C@H](CCCCN)NC(=O)[C@H](C)NC(=O)[C@@H](NC(=O)[C@H](Cc1cnc[nH]1)NC(=O)[C@H](CCCCN)NC(=O)[C@H](C)NC(=O)[C@@H](NC(=O)[C@H](Cc1cnc[nH]1)NC(=O)[C@H](C)NC(=O)[C@H](C)NC(=O)[C@H](CCCCN)NC(=O)[C@H](CCCCN)NC(=O)[C@H](Cc1ccccc1)NC(=O)[C@H](Cc1ccccc1)NC(=O)[C@H](CO)NC(=O)CNC(=O)[C@H](Cc1c[nH]c2ccccc12)NC(=O)CN)C(C)C)C(C)C)[C@@H](C)O)C(=O)O [GWGSFFKKAAHVAKHVAKAALTHYL]

- MIC [2]: 0.19 µM (≈ 0.409 µg/mL)
- MIC [11]: 6.25 µM (≈ 13.5 µg/mL)
- MIC [12]: 0.39 µM (≈ 0.84 µg/mL)
- MIC [13]: 0.78 µM (≈ 1.68 µg/mL)
- MIC [4]: 1.56 µM (≈ 3.36 µg/mL)
- MIC [14]: 4.42 µM (≈ 9.52 µg/mL)
- MIC [15]: 6.25 µM (≈ 13.5 µg/mL)
SMILES: CC[C@H](C)[C@H](NC(=O)CNC(=O)[C@H](CC(C)C)NC(=O)[C@H](CCCN=C(N)N)NC(=O)[C@H](CCCCN)NC(=O)[C@H](Cc1ccccc1)NC(=O)[C@@H](NC(=O)[C@H](CCCCN)NC(=O)[C@H](CCCCN)NC(=O)[C@H](C)N)C(C)C)C(=O)NCC(=O)N[C@@H](C)C(=O)N[C@H](C(=O)N[C@@H](CC(C)C)C(=O)N[C@@H](CCCCN)C(=O)N[C@H](C(=O)N[C@@H](CC(C)C)C(=O)N[C@@H](CCCCN)C(=O)N[C@@H](CCCCN)C(=O)NCC(=O)O)C(C)C)C(C)C [AKKVFKRLGIGAVLKVLKKG]

- MIC [16]: ≥ 250 µM
- MIC [17]: ≥ 250 µM
- MIC [18]: ≥ 250 µM
- MIC [19]: ≥ 250 µM
- MIC [20]: > 250 µM
- MIC [21]: ≥ 125 µM
- MIC [22]: ≥ 250 µM
- MIC [23]: ≥ 250 µM
- MIC [24]: ≥ 250 µM
- MIC [25]: ≥ 250 µM
- MIC [26]: ≥ 250 µM
- MIC [27]: > 250 µM
- MIC [28]: ≥ 250 µM
- MIC [29]: ≥ 250 µM
- MIC [30]: ≥ 125 µM
- MIC [31]: ≥ 125 µM
- MIC [32]: ≥ 250 µM
- MIC [33]: ≥ 125 µM
- MIC [34]: 250 µM (≈ 380 µg/mL)
- MIC [35]: ≥ 250 µM
- MIC [36]: ≥ 250 µM
- MIC [37]: ≥ 250 µM
- MIC [38]: ≥ 250 µM
- MIC [39]: 125 µM (≈ 190 µg/mL)
- MIC [40]: ≥ 250 µM
- MIC [41]: ≥ 125 µM
SMILES: CC[C@H](C)[C@H](NC(=O)[C@H](C)NC(=O)[C@H](CCCCN)NC(=O)CNC(=O)[C@@H](NC(=O)[C@H](Cc1cnc[nH]1)NC(=O)CNC(=O)[C@H](CC(C)C)NC(=O)[C@H](CC(C)C)NC(=O)[C@@H](NC(=O)CNC(=O)[C@@H](NC(=O)[C@H](CC(C)C)NC(=O)CN)C(C)C)[C@@H](C)O)[C@@H](C)CC)C(=O)N[C@@H](CC(C)C)C(=O)NCC(=O)O [GLVGTLLGHIGKAILG]

- MIC [42]: 0.904 µM (≈ 2 µg/mL)
- MIC [43]: 3.62 µM (≈ 8 µg/mL)
- MIC [44]: 0.904 µM (≈ 2 µg/mL)
- MIC [45]: 3.62 µM (≈ 8 µg/mL)
SMILES: CC[C@H](C)[C@H](NC(=O)[C@@H]1CCCN1C(=O)[C@H](CCCN=C(N)N)NC(=O)[C@@H]1CCCN1C(=O)[C@H](Cc1cnc[nH]1)NC(=O)[C@H](CO)NC(=O)[C@@H](NC(=O)[C@@H]1CCCN1C(=O)[C@H](CCCN=C(N)N)NC(=O)[C@@H]1CCCN1C(=O)[C@@H](NC(=O)[C@H](Cc1ccc(O)cc1)NC(=O)[C@@H]1CCCN1C(=O)[C@H](CCCN=C(N)N)NC(=O)[C@@H]1CCCN1C(=O)[C@H](CCCCN)NC(=O)CN)[C@@H](C)O)[C@@H](C)O)C(=O)N[C@@H](CCCN=C(N)N)C(=O)N[C@H](C(=O)O)C(C)C [GKPRPYTPRPTSHPRPIRV]
